Test results reported in US20260315452A1, “PROTEASE INHIBITORS AND USES THEREOF” (priority 2023, published 2026).

Target: SARS-CoV-2 3CLpro (Severe acute respiratory syndrome coronavirus 2, UniProt P0DTD1)
Assay: biochemical
Settings: inhibition of SARS-CoV-2 3CLpro; 15 nM 3CLpro, 25 μM fluorogenic substrate, 37° C.; read-out: Inhibitory Activity (IC50)

With CNC(=O)c1cc(Br)cc(C(F)(F)F)c1N[C@H]1CN(C(=O)c2cncc3ccccc23)CC[C@@H]1F [Compound 183, 5-bromo-2-(((3S, 4S)-4-fluoro-1-(isoquinoline-4-carbonyl)piperidin-3-yl)amino)-N-methyl-3-(trifluoromethyl)benzamide] the IC50 was under 100 nM.

CNC(=O)c1cc(Br)cc([N+](=O)[O-])c1N[C@H]1CN(C(=O)c2cncc3ccccc23)C[C@@H]1C [Compound 50, 5-bromo-2-[[(3R, 4S)-1-(isoquinoline-4-carbonyl)-4-methyl-pyrrolidin-3-yl]amino]-N-methyl-3-nitro-benzamide] was tested, and the IC50 was under 100 nM.

CNC(=O)c1cc(Cl)cc([N+](=O)[O-])c1N[C@H]1CN(C(=O)c2cncc(Cl)c2C)CCC1(F)F [Compound 169, (S)-5-chloro-2-((1-(5-chloro-4-methylnicotinoyl)-4,4-difluoropiperidin-3-yl)amino)-N-methyl-3-nitrobenzamide] showed an IC50 of under 100 nM.

CNC(=O)c1cc(Br)cc([N+](=O)[O-])c1N[C@H]1CN(Cc2cncc3ccccc23)CCC1(F)F [Compound 32, (S)-5-bromo-2-((4,4-difluoro-1-(isoquinolin-4-ylmethyl)piperidin-3-yl)amino)-N-methyl-3-nitrobenzamide] showed an IC50 of 100 to 1000 nM.

CN(C)C(=O)c1cc(Cl)cc([N+](=O)[O-])c1N[C@H]1CN(C(=O)c2cncc3ccccc23)CC[C@@H]1F [Compound 177] was tested, and the IC50 was under 100 nM.

For CNC(=O)c1cc(Br)cc([N+](=O)[O-])c1N[C@@H]1CCCC[C@@H]1NC(=O)c1cncc(N)c1 [Compound 3, 5-amino-N-((1S, 2R)-2-((4-bromo-2-(methylcarbamoyl)-6-nitrophenyl)amino)cyclohexyl)nicotinamide], the IC50 was 1000 to 10000 nM.

Work on CNC(=O)c1cc(Br)cc(S(C)(=O)=O)c1N[C@@H]1CCCC[C@@H]1NC(=O)c1cncc2ccccc12 [Compound 57, N-((1S,2R)-2-((4-bromo-2-(methylcarbamoyl)-6-(methylsulfonyl)phenyl)amino)cyclohexyl) isoquinoline-4-carboxamide] yielded an IC50 of at least 10000 nM.

CNC(=O)c1cc(Cl)cc([N+](=O)[O-])c1N[C@H]1CN(C(=O)c2cncc3ccncc23)CC[C@@H]1F [Compound 171, 5-chloro-2-(((3S, 4S)-4-fluoro-1-(2,6-naphthyridine-4 - carbonyl)piperidin-3-yl)amino)-N-methyl-3-nitrobenzamide] gave an IC50 of under 100 nM.

In the case of CNC(=O)c1cc(Br)cc([N+](=O)[O-])c1N1CCc2[nH]nc(-c3cncc4ccccc34)c2C1 [Compound 69, 5-bromo-2-(3-(isoquinolin-4-yl)-1,4,6,7-tetrahydro-5H-pyrazolo[4,3-c]pyridin-5-yl)-N-methyl-3-nitrobenzamide], the IC50 is reported as 1000 to 10000 nM.

Compound CNC(=O)c1cc(Cl)cc([N+](=O)[O-])c1NC(C(C)C)C1CN(C(=O)c2cncc3ccccc23)C1 (centres unmarked) [Compound 130, 5-chloro-2-((1-(1-(isoquinoline-4-carbonyl)azetidin-3-yl)-2-methylpropyl)amino)-N-methyl-3-nitrobenzamide acid] has an IC50 of 100 to 1000 nM.

Compound CNC(=O)c1cc(Br)cc(C(F)(F)F)c1N[C@H]1CN(C(=O)c2cncc3ccccc23)CC[C@H]1F [Compound 181, 5-bromo-2-(((3S,4R)-4-fluoro-1-(isoquinoline-4-carbonyl)piperidin-3-yl)amino)-N-methyl-3-(trifluoromethyl)benzamide] has an IC50 of under 100 nM.

O=C(N[C@H]1CCOC1)c1cc(Cl)cc(C(F)(F)F)c1N[C@H]1CN(C(=O)c2cncc3ccccc23)CCC1(F)F [Compound 165, 5-chloro-2-(((S)-4,4-difluoro-1-(isoquinoline-4-carbonyl)piperidin-3-yl)amino)-N-((S)-tetrahydrofuran-3-yl)-3-(trifluoromethyl)benzamide] was tested, and the IC50 was under 100 nM.

O=C(NC1CC(F)(F)C1)c1cc(Br)cc([N+](=O)[O-])c1N1CCC2(CCN(C(=O)c3cncnc3)C2)C1 (centres unmarked) [Compound 115, 5-bromo-N-(3,3-difluorocyclobutyl)-3-nitro-2-(7-(pyrimidine-5-carbonyl)-2,7-diazaspiro[4.4]nonan-2-yl)benzamide] was tested, and the IC50 was at least 10000 nM.

CNC(=O)c1cc(Br)cc(C(F)(F)F)c1N[C@H]1CN(C(=O)c2cncc3cccnc23)CCC1(F)F [Compound 167, (S)-5-bromo-2-((4,4-difluoro-1-(1,6-naphthyridine-8-carbonyl)piperidin-3-yl)amino)-N-methyl-3-(trifluoromethyl)benzamide] gave an IC50 of under 100 nM.

Cc1c(Cl)cncc1C(=O)N1CCC2(CCN(c3c(C(=O)NC4CC(F)(F)C4)cc(Br)cc3[N+](=O)[O-])C2)C1 (centres unmarked) [Compound 24, 5-bromo-2-(7-(5-chloro-4-methylnicotinoyl)-2,7-diazaspiro[4.4]nonan-2-yl)-N-(3,3-difluorocyclobutyl)-3-nitrobenzamide] was tested, and the IC50 was 1000 to 10000 nM.

CNC(=O)c1cc(Br)cc([N+](=O)[O-])c1N[C@H]1CN(C(=O)c2cc(=O)[nH]c3ccccc23)CCC1(F)F [Compound 103, (S)-5-bromo-2-((4,4-difluoro-1-(2-oxo-1,2-dihydroquinoline-4-carbonyl)piperidin-3-yl)amino)-N-methyl-3-nitrobenzamide] was tested, and the IC50 was under 100 nM.

For CNC(=O)c1cc(Cl)cc([N+](=O)[O-])c1N[C@H]1CN(C(=O)c2cncc3cnn(C)c23)CCC1(F)F [Compound 106, (S)-5-chloro-2-((4,4-difluoro-1-(1-methyl-1H-pyrazolo[4,3-c]pyridine-7-carbonyl)piperidin-3-yl)amino)-N-methyl-3-nitrobenzamide], the IC50 was under 100 nM.

Work on C[C@@H](NC(=O)c1cc(Br)cc([N+](=O)[O-])c1N1CCC2(CN(C(=O)c3cncc4ccccc34)CC2(F)F)C1)C(F)(F)F (stereo partly drawn) [Compound 78, 5-bromo-2-(9,9-difluoro-7-(isoquinoline-4-carbonyl)-2,7-diazaspiro[4. 4]nonan-2-yl)-3-nitro-N-((R)-1,1,1-trifluoropropan-2-yl)benzamide] yielded an IC50 of under 100 nM.

Cc1c(F)cncc1C(=O)N1CCC2(CCN(c3c(C(=O)NC4CC(F)(F)C4)cc(Br)cc3[N+](=O)[O-])C2)C1 (centres unmarked) [Compound 76, 5-bromo-N-(3,3-difluorocyclobutyl)-2-(7-(5-fluoro-4-methylnicotinoyl)-2,7-diazaspiro[4.4]nonan-2-yl)-3-nitrobenzamide] gave an IC50 of 1000 to 10000 nM.

In the case of CNC(=O)c1cc(Br)cc([N+](=O)[O-])c1NCC1CN(C(=O)c2cncc3ccccc23)CC1(F)F (centres unmarked) [Compound 77, 5-bromo-2-(((4,4-difluoro-1-(isoquinoline-4-carbonyl)pyrrolidin-3-yl)methyl)amino)-N-methyl-3-nitrobenzamide], the IC50 is reported as 1000 to 10000 nM.

For CNC(=O)c1cc(Br)cc([N+](=O)[O-])c1NC(C(C)C)C1CN(C(=O)c2cncc(C(F)(F)F)c2)C1 (centres unmarked) [Compound 73, 5-bromo-N-methyl-2-((2-methyl-1-(1-(5-(trifluoromethyl)nicotinoyl)azetidin-3-yl)propyl)amino)-3-nitrobenzamide], the IC50 was 1000 to 10000 nM.

Compound O=C(NC1CC(F)(F)C1)c1cc(Br)cc([N+](=O)[O-])c1N[C@H]1CN(C(=O)c2cncc3ccccc23)CC(F)(F)C1 [Compound 134, (R)-5-bromo-2-((5,5-difluoro-1-(isoquinoline-4-carbonyl)piperidin-3-yl)amino)-N-(3,3-difluorocyclobutyl)-3-nitrobenzamide] has an IC50 of 100 to 1000 nM.

CNC(=O)c1cc(Br)cc([N+](=O)[O-])c1N[C@H]1CN(C(=O)C2CC(=O)Nc3ccccc32)CCC1(F)F (some centres unmarked) [Compound 104] was tested, and the IC50 was under 100 nM.
